Experimental data as given in EP0523356B1, “Burst-test” (Orpegen Medizinisch-Molekularbiologische …, priority 1991, dated 1993).

System: Granulozyten
Assay: Oxidative burst test in heparinised whole blood (dihydrorhodamine 123, flow cytometry)
Type: cell-based, menschlichen
Conditions: Erwartungswerte, 10 + 10 Minuten Inkubation at 37°C, heparinised whole blood 100 µl
Procedure: Frisch entnommenes, heparinisiertes Vollblut wird gemixt (Vortex) und auf dem Boden eines 5 ml-Röhrchens aliquotiert, wobei pro Ansatz 100 µl verwendet werden. Durch EDTA oder Citrat stabilisiertes Vollblut ist für das Verfahren nicht sonderlich geeignet. Die Blutproben werden vor der Zugabe der Bakterien ca. 15 Minuten im Eiswasserbad inkubiert, um auf 0°C abgekühlt zu sein.
Die vorgekühlten E.coli-Bakterien (1 x 10^9 pro ml) werden gut gemixt (Vortex) und 20 µl pro Ansatz zum Vollblut pipettiert ("high control", Röhrchen 1). Gegebenenfalls können 20 µl N-Formyl-Met-Leu-Phe-Gebrauchslösung als "low control" in ein weiteres Röhrchen (Röhrchen 2) gegeben werden (Endkonzentration 10^-6 mol/l). 20 µl Waschlösung (phosphatgepufferte Salzlösung ohne Calcium^2+ und Magnesium^2+ mit 0,02 % EDTA) werden als Negativkontrolle in ein drittes Röhrchen (Röhrchen 3) gegeben.
Alle Röhrchen werden nochmals gemixt (Vortex) und 10 Minuten lang bei 37°C im Wasserbad unter starkem Schütteln inkubiert (bei einer kinetischen Messung können auch längere Inkubationszeiten erforderlich sein).
Nach 10 Minuten erfolgt die Zugabe von 20 µl frisch angesetzter Substratlösung und Mischen (Vortex) (Endkonzentration 0,2 µg Dihydrorhodamin 123 auf 100 µl Körperflüssigkeit). […]

How did the “mittlere Fluoreszenzintensität (4 Dekaden, 1024 Kanäle)” value (green fluorescence (FL1) of the oxidising cells, stimulant: 20 µl E.coli 1 x 10^9 pro ml or N-Formyl-Met-Leu-Phe Endkonzentration 10^-6 mol/l) turn out when CSCC[C@H](NC=O)C(=O)N[C@@H](CC(C)C)C(=O)N[C@@H](Cc1ccccc1)C(=O)O [N-Formyl-Met-Leu-Phe] was run?
Its value is 10-100.

What about the “% oxidierende Granulozyten” value (stimulant: 20 µl E.coli 1 x 10^9 pro ml or N-Formyl-Met-Leu-Phe Endkonzentration 10^-6 mol/l6 mol/l) of the same molecule?
Its value is 1-5%.
